Data published in US20040198663A1, “Method of treating cardiac ischemia by using erythropoietin” (priority 2003, published 2004).

Tests used:
[1] = system: hearts from normoxic infant rabbits; assay: Isolated Langendorff-perfused heart, 30 min global no-flow ischemia and 35 min reperfusion, normoxic hearts; design: species or system New Zealand White rabbit; conditions: for POST DRUG Coronary flow rate / POST DRUG Heart rate / POST DRUG Left ventricle developed pressure / POST DRUG Right ventricle developed pressure / REPERFUSION (35 min) Coronary flow rate / REPERFUSION (35 min) Heart rate / REPERFUSION (35 min) Left ventricle developed pressure / REPERFUSION (35 min) Right ventricle developed pressure: normoxic hearts; for REPERFUSION (35 min) Coronary flow rate / REPERFUSION (35 min) Heart rate / REPERFUSION (35 min) Left ventricle developed pressure / REPERFUSION (35 min) Right ventricle developed pressure: after 30 min ischemia
Procedure: The study was directed to determining whether erythropoietin (0.5-10.0 U/ml) confers immediate cardioprotection in infant rabbit hearts and the contribution of protein kinases, nitric oxide synthase and potassium channels to the underlying mechanism. Hearts from normoxic infant Zealand White rabbits (n=8/group) were isolated and perfused in the Langendorff mode. Biventricular function was recorded under steady-state conditions prior to 30 minutes global no flow ischemia and 35 minutes reperfusion.
Animals. Rabbits used in the study received humane care in compliance with the “Guide for the Care and Use of Laboratory Animals” formulated by the National Research Council, 1996. Infant New Zealand White rabbits were maintained for 10 days in a normoxic (SaO2>95%) or hypoxic (SaO2<85%) environment as described in Baker et al., Circulation 99:1249-54 (1999).
Isolated heart perfusion. Isolated rabbit hearts were perfused with bicarbonate buffer at constant pressure in a retrograde manner and instrumented as described in Baker et al., Circulation 99:1249-54 (1999). Protein kinase inhibitors, potassium channel blockers or nitric oxide synthase inhibitors were added to this perfusate as needed. A 3-way tap, located immediately above the site of cannulation, allowed the entire perfusate to be diverted away from the heart to produce global, no-flow ischemia. Reperfusion was achieved by repositioning of the tap to allow perfusate to be delivered to the heart. Left and right ventricular function was monitored continuously throughout each experiment as described in Baker et al., Circulation 99:1249-54 (1999). End-diastolic pressure was initially set to 3 mmHg for 2 minutes. The balloons were then progressively inflated with a microsyringe to set end-diastolic pressures to 8 mmHg for the left ventricle and 4 mmHg for the right ventricle, with developed pressure and heart rate recorded during steady-state conditions. Coronary flow rate was measured throughout the experiment by timed collections of the coronary effluent from the right side of the heart into a graduated cylinder. Coronary flow rate was expressed as milliliters per minute per gram wet weight.
Resistance to myocardial ischemia. Hearts from infant rabbits were perfused with bicarbonate buffer, and biventricular function was monitored continuously throughout each experiment as described in Rafiee et al., Circulation 106:239-45 (2002). For concentration response studies, hearts were then perfused with erythropoietin (0.5-10.0 U/ml) for 15 minutes prior to 30 minutes ischemia and 35 minutes reperfusion. For mechanism studies with protein kinase inhibitors, potassium channel blockers or nitric oxide synthase inhibitors, hearts were perfused with drugs for 15 minutes alone followed by 15 minutes in combination with erythropoietin prior to ischemia. Hearts perfused with protein kinase inhibitors or potassium channel blockers alone in the absence of erythropoietin for 30 minutes prior to ischemia served as untreated controls for these studies. Recovery of post-ischemic left and right ventricular developed pressure was expressed as a percentage of its pre-drug, pre-ischemic value.
Assessment of ventricular function. Left and right ventricular function was monitored continuously throughout each experiment as described in Rafiee et al., Circulation 106:239-45 (2002).
Hearts from New Zealand White rabbits at 9 days of age were perfused with erythropoietin at 0, 0.5, 1.0, 2.5, 5.0, and 10.0 U/ml for 15 minutes prior to 30 minutes global ischemia and 35 minutes reperfusion. Erythropoietin (1.0 U/ml) reduced coronary flow rate prior to ischemia from 7 ml/min/g to 6 ml/min/g but had no effect on heart rate (220±18 beats/min) or developed pressure in left (106±3 mm Hg) or right (42±3 mm Hg) ventricle.

nitric oxide synthase = assay: Nitrite and nitrate release from isolated hearts; design: species or system rabbit; conditions: before 2.3±0.9
Procedure: Nitrite and nitrate release from hearts before (2.3±0.9 nmoles/min/g) and after (2.4±1.9 nmoles/min/g) 15 minutes treatment with erythropoietin (1.0 U/ml, n=8) were not different.

[2] = erythropoietin 1.0 U/ml, no effect

erythropoietin: Recombinant human erythropoietin, a glycoprotein hormone, obtained from Cell Science, Inc.
cardioprotection after 20 minutes treatment versus 15-minute treatment ([1]; 1.0 U/ml for 20 minutes): no further increase in cardioprotection
minimum treatment period needed to confer cardioprotection in both left and right ventricle ([1]; 1.0 U/ml prior to ischemia): 15 min
protective concentrations of erythropoietin in the in vitro studies ([1]; 15 min prior to ischemia): 0.5-5.0 units/ml
developed pressure in left ventricle prior to ischemia [1, 2]: 106±3 mm Hg
developed pressure in right ventricle prior to ischemia [1, 2]: 42±3 mm Hg
heart rate prior to ischemia [1, 2]: 220±18 beats/min
coronary flow rate prior to ischemia ([1]; erythropoietin 1.0 U/ml, reduced from 7 ml/min/g): 6 mL/min/g
POST DRUG Coronary flow rate ([1]; EPO 0.5 U/ml for 15 min): 3 ± 1 mL/min/g
POST DRUG Heart rate ([1]; EPO 0.5 U/ml for 15 min): 196 ± 21 beats/min
POST DRUG Left ventricle developed pressure ([1]; EPO 0.5 U/ml for 15 min): 102 ± 8 mmHg
POST DRUG Right ventricle developed pressure ([1]; EPO 0.5 U/ml for 15 min): 38 ± 5 mmHg
REPERFUSION (35 min) Coronary flow rate ([1]; EPO 0.5 U/ml): 4 ± 1 mL/min/g
REPERFUSION (35 min) Heart rate ([1]; EPO 0.5 U/ml): 210 ± 19 beats/min
REPERFUSION (35 min) Left ventricle developed pressure ([1]; EPO 0.5 U/ml): 67 ± 3 mmHg
REPERFUSION (35 min) Right ventricle developed pressure ([1]; EPO 0.5 U/ml): 31 ± 4 mmHg
POST DRUG Coronary flow rate ([1]; EPO 1.0 U/ml for 15 min): 3 ± 1 mL/min/g
POST DRUG Heart rate ([1]; EPO 1.0 U/ml for 15 min): 199 ± 25 beats/min
POST DRUG Left ventricle developed pressure ([1]; EPO 1.0 U/ml for 15 min): 99 ± 4 mmHg
POST DRUG Right ventricle developed pressure ([1]; EPO 1.0 U/ml for 15 min): 38 ± 3 mmHg
REPERFUSION (35 min) Coronary flow rate ([1]; EPO 1.0 U/ml): 5 ± 1 mL/min/g
REPERFUSION (35 min) Heart rate ([1]; EPO 1.0 U/ml): 210 ± 30 beats/min
REPERFUSION (35 min) Left ventricle developed pressure ([1]; EPO 1.0 U/ml): 71 ± 8 mmHg
REPERFUSION (35 min) Right ventricle developed pressure ([1]; EPO 1.0 U/ml): 31 ± 2 mmHg
POST DRUG Coronary flow rate ([1]; EPO 2.5 U/ml for 15 min): 4 ± 1 mL/min/g
POST DRUG Heart rate ([1]; EPO 2.5 U/ml for 15 min): 210 ± 20 beats/min
POST DRUG Left ventricle developed pressure ([1]; EPO 2.5 U/ml for 15 min): 103 ± 4 mmHg
POST DRUG Right ventricle developed pressure ([1]; EPO 2.5 U/ml for 15 min): 41 ± 5 mmHg
REPERFUSION (35 min) Coronary flow rate ([1]; EPO 2.5 U/ml): 5 ± 2 mL/min/g
REPERFUSION (35 min) Heart rate ([1]; EPO 2.5 U/ml): 224 ± 14 beats/min
REPERFUSION (35 min) Left ventricle developed pressure ([1]; EPO 2.5 U/ml): 64 ± 3 mmHg
REPERFUSION (35 min) Right ventricle developed pressure ([1]; EPO 2.5 U/ml): 31 ± 3 mmHg
POST DRUG Coronary flow rate ([1]; EPO 5.0 U/ml for 15 min): 4 ± 1 mL/min/g
POST DRUG Heart rate ([1]; EPO 5.0 U/ml for 15 min): 221 ± 20 beats/min
POST DRUG Left ventricle developed pressure ([1]; EPO 5.0 U/ml for 15 min): 102 ± 6 mmHg
POST DRUG Right ventricle developed pressure ([1]; EPO 5.0 U/ml for 15 min): 43 ± 7 mmHg
REPERFUSION (35 min) Coronary flow rate ([1]; EPO 5.0 U/ml): 4 ± 1 mL/min/g
REPERFUSION (35 min) Heart rate ([1]; EPO 5.0 U/ml): 226 ± 26 beats/min
REPERFUSION (35 min) Left ventricle developed pressure ([1]; EPO 5.0 U/ml): 64 ± 4 mmHg
REPERFUSION (35 min) Right ventricle developed pressure ([1]; EPO 5.0 U/ml): 32 ± 5 mmHg
POST DRUG Coronary flow rate ([1]; EPO 10 U/ml for 15 min): 5 ± 2 mL/min/g
POST DRUG Heart rate ([1]; EPO 10 U/ml for 15 min): 232 ± 52 beats/min
POST DRUG Left ventricle developed pressure ([1]; EPO 10 U/ml for 15 min): 101 ± 5 mmHg
POST DRUG Right ventricle developed pressure ([1]; EPO 10 U/ml for 15 min): 40 ± 5 mmHg
REPERFUSION (35 min) Coronary flow rate ([1]; EPO 10 U/ml): 5 ± 1 mL/min/g
REPERFUSION (35 min) Heart rate ([1]; EPO 10 U/ml): 230 ± 49 beats/min
REPERFUSION (35 min) Left ventricle developed pressure ([1]; EPO 10 U/ml): 52 ± 3 mmHg
REPERFUSION (35 min) Right ventricle developed pressure ([1]; EPO 10 U/ml): 28 ± 4 mmHg
nitrite and nitrate release from hearts after treatment (nitric oxide synthase; after 15-minute erythropoietin 1.0 U/ml, not different (discussion)): 2.4 ± 0.9 nmol/min/g
nitrite and nitrate release from hearts after treatment (nitric oxide synthase; after 15 minutes erythropoietin 1.0 U/ml, not different): 2.4 ± 1.9 nmol/min/g
